Results from paper PMC4274890 (Emerging Microbes & Infections, 2014).

Tests used:
SH5190 [1] = assay type: cell-based, A/Shanghai/5190/2013(H7N9)
SH5190 [2] = assay type: cell-based, A/Shanghai/5190/2013(H7N9); remark: listed apart in the source

Structure (SMILES) | times more potent than T-705 and ribavirin (SH5190 [1]) | plaque mean diameter (SH5190 [2]) [mm]
CC(=O)Oc1ccccc1C(=O)Nc1ncc([N+](=O)[O-])s1 [NT-300, nitazoxanide] | over 25 times | 
CCC(CC)O[C@@H]1C=C(C(=O)O)C[C@H](N)[C@H]1NC(C)=O [Oseltamivir carboxylate] |  | < 0.1
